Among the data in PubChem BioAssay (NCI) are TGI and GI50 values, retold here.

Some test systems named below: HCC-2998 colon; UO-31 renal; SF-268 CNS; OVCAR-3 ovarian; HT29 colon; UACC-257 melanoma; KM12 colon; OVCAR-4 ovarian; CAKI-1 renal.
Holding throughout (test): NCI anticancer screen, dose series, 48 h

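Five concentrations, 48 hours, 96-well plates. Here, GI50 denotes the concentration required for 50% inhibition of growth. TGI: total growth inhibition.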

With `c1cnc2c(c1)-n1cccc1C1(CCSCC1)NN2`, the TGI with HCC-2998 colon was above 100 µM; in the assay with UO-31 renal, 94.1 µM; in the assay on SF-268 CNS, above 100 µM; with OVCAR-3 ovarian, above 100 µM; in the assay on HT29 colon it was above 100 µM; in the assay with UACC-257 melanoma it was above 100 µM. Also, the TGI in the assay on KM12 colon, in the assay with OVCAR-4 ovarian and in the assay with CAKI-1 renal was above 100 µM throughout.

With `COc1cc(-c2cc(=O)c3cc4c(cc3[nH]2)OCO4)cc(OC)c1OC`, the TGI in the assay on HCC-2998 colon, with UO-31 renal, in the assay on SF-268 CNS, with OVCAR-3 ovarian, in the assay with HT29 colon and with KM12 colon was above 100 µM in each case. Moreover, the TGI in the assay with OVCAR-4 ovarian and with CAKI-1 renal was above 100 µM throughout. In addition, the results for the GI50 in the assay with SF-268 CNS and in the assay on OVCAR-3 ovarian were 32.7 µM and above 100000 nM, respectively.

Consider `CCCC(=O)c1c(NOC2OC(COC(C)=O)C(OC(C)=O)C(OC(C)=O)C2OC(C)=O)nc(OC)n(C)c1=O` (stereo not drawn), for which the TGI in the assay on HCC-2998 colon is above 100 µM; with UO-31 renal, 89 µM; in the assay with SF-268 CNS it was above 100 µM; in the assay on HT29 colon it was above 100 µM; in the assay with KM12 colon, above 100 µM; with OVCAR-4 ovarian, above 100 µM.

For the compound `COc1ccc(-c2c(C3=NCCN3)nnn2-c2ccccc2)cc1`, the TGI in the assay on HCC-2998 colon, in the assay on UO-31 renal, in the assay with SF-268 CNS, with OVCAR-3 ovarian, in the assay on HT29 colon and with UACC-257 melanoma was above 100 µM in each case. Besides, the TGI with KM12 colon, with OVCAR-4 ovarian and with CAKI-1 renal was above 100 µM in each case.

In the case of `COc1cc([C@H](C)c2ccc3ccccc3c2)cc(OC)c1OC`, the GI50 in the assay on HCC-2998 colon was 1240 nM; in the assay on UO-31 renal, 665 nM; with SF-268 CNS, 1.67 µM; in the assay on OVCAR-3 ovarian, 272 nM; in the assay with HT29 colon it was 294 nM; in the assay with UACC-257 melanoma it was 1970 nM. Also, the results for the GI50 with KM12 colon and in the assay on OVCAR-4 ovarian were 276 nM and 1170 nM, respectively. For the same compound, the TGI in the assay on HCC-2998 colon was above 100 µM; with UO-31 renal it was above 100 µM; in the assay with SF-268 CNS it was above 100 µM; in the assay on OVCAR-3 ovarian it was above 100 µM; with HT29 colon it was above 100 µM; in the assay on UACC-257 melanoma, 44 µM. For the same compound, the TGI with KM12 colon and in the assay with OVCAR-4 ovarian was above 100 µM in each case.

Consider `Nc1ccc(C(=O)N/C(=C\C=C\c2ccco2)c2nc3[nH]c(=S)[nH]c(=O)c3[nH]2)cc1`, for which the TGI in the assay with HCC-2998 colon, in the assay on UO-31 renal, in the assay with SF-268 CNS, in the assay on OVCAR-3 ovarian, in the assay on HT29 colon and in the assay with KM12 colon was above 100 µM throughout. For the same compound, the TGI in the assay on OVCAR-4 ovarian and in the assay with CAKI-1 renal was above 100 µM throughout.

Consider `CCN(CC)CCC1CC/C(=C\c2ccc(OC)cc2)C1=O` (stereo not drawn), for which the TGI in the assay on HCC-2998 colon was above 100 µM; with UO-31 renal it was above 100 µM; with SF-268 CNS, above 100 µM; with OVCAR-3 ovarian it was above 100 µM; with HT29 colon, above 100 µM; in the assay on UACC-257 melanoma, 77.6 µM. For the same compound, the TGI in the assay with KM12 colon, with OVCAR-4 ovarian and in the assay on CAKI-1 renal was above 100 µM throughout.

As for `COC1=CC23C=CC1[C@@H](c1ccccc1)C2=C(C)C(=O)N3C(=O)NC1CCCCC1` (stereo partly drawn), the TGI in the assay with HCC-2998 colon is 52 µM; in the assay with UO-31 renal, 54.7 µM; in the assay on SF-268 CNS, 33.6 µM; with OVCAR-3 ovarian, 59.8 µM; in the assay on HT29 colon, 41.1 µM; in the assay on UACC-257 melanoma, 77.4 µM. The TGI was above 100 µM in the assay on KM12 colon and 45.1 µM in the assay with CAKI-1 renal.

For `O=C(Nc1ccccc1)c1ccc(Cl)c([N+](=O)[O-])c1`, the TGI in the assay with UO-31 renal was above 100 µM; in the assay with OVCAR-3 ovarian, 43.5 µM; in the assay on HT29 colon, 70.1 µM; with UACC-257 melanoma, 48.4 µM; in the assay with KM12 colon, 12.7 µM; in the assay on CAKI-1 renal, 40.4 µM.

`CC(=O)O[C@H]1C(N(C)C(=O)c2ccccc2)CC[C@]2(C)C3CC[C@@]4(C)C(CC(O)[C@@H]4C(C)N(C)C)[C@@H]3CCC12` (stereo partly drawn): the TGI with HCC-2998 colon, in the assay on SF-268 CNS, in the assay with OVCAR-3 ovarian, in the assay on HT29 colon, with UACC-257 melanoma and with KM12 colon was above 100 µM each time. The TGI with OVCAR-4 ovarian and with CAKI-1 renal was above 100 µM in each case.

`NC(N)=N/N=C(/c1nc2ccc([N+](=O)[O-])cc2[nH]c1=O)C(O)c1ccco1` (stereo not drawn): the TGI with HCC-2998 colon, with UO-31 renal, in the assay with SF-268 CNS, in the assay on HT29 colon, in the assay on UACC-257 melanoma and with KM12 colon was above 100 µM throughout. Moreover, the TGI in the assay with OVCAR-4 ovarian and in the assay with CAKI-1 renal was above 100 µM throughout.

For the compound `C=CCNC(=S)N1CC(C)C(=O)Nc2ccccc21` (stereo not drawn), the TGI in the assay on UO-31 renal, in the assay on SF-268 CNS, in the assay with OVCAR-3 ovarian, in the assay on HT29 colon, in the assay on KM12 colon and with OVCAR-4 ovarian was above 100 µM throughout.

Take `CCN(CC)c1ccc(N=Nc2ccc(-c3nc4cccnc4o3)cc2)cc1`: the TGI in the assay on HCC-2998 colon, in the assay with UO-31 renal, with SF-268 CNS, with OVCAR-3 ovarian, with HT29 colon and with UACC-257 melanoma was above 100 µM throughout. Further, the TGI with KM12 colon, in the assay on OVCAR-4 ovarian and in the assay on CAKI-1 renal was above 100 µM throughout.

For `CN1CCN(CCSC2Cc3cc(Cl)ccc3Sc3ccccc32)CC1` (stereo not drawn), the TGI with HCC-2998 colon worked out at 15.3 µM; in the assay on UO-31 renal, 21.6 µM; in the assay with SF-268 CNS, 25.6 µM; with OVCAR-3 ovarian it was 16.5 µM; in the assay on HT29 colon it was 3.45 µM; with UACC-257 melanoma it was 4.38 µM. In addition, the TGI with KM12 colon was determined as 20.1 µM; in the assay on OVCAR-4 ovarian, 18.2 µM; in the assay on CAKI-1 renal, 17.2 µM.

For the compound `O=C(C(O)c1cn(Cc2ccccc2)c2ccccc12)N1CCCCC1` (stereo not drawn), the TGI in the assay with HCC-2998 colon, in the assay with UO-31 renal, in the assay on SF-268 CNS, with OVCAR-3 ovarian, with HT29 colon and in the assay with UACC-257 melanoma was above 100 µM in each case. In addition, the TGI in the assay on KM12 colon was above 100 µM.
